# “And” between values parts separate entries of the source, which are not always exact repeats. Identical values can stand only once.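 Step 1: Grow cells in 96-well plates. Step 2: Expose to compound for 48 hours at 5 concentrations. Step 3: Interpolate endpoints linearly; if unreached, use highest concentration. Here, GI50 denotes the concentration required for 50% inhibition of growth. At the TGI there is no net growth.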
# Columns and labels:
# Assay in all cases: NCI-60 cell line screen, 48 h
# ACHN renal = test system: ACHN renal
# MDA-N = test system: MDA-N
# M14 melanoma = test system: M14 melanoma
# 786-0 renal = test system: 786-0 renal
# SF-268 CNS = test system: SF-268 CNS
# SK-MEL-5 melanoma = test system: SK-MEL-5 melanoma
# SK-OV-3 ovarian = test system: SK-OV-3 ovarian
# U251 CNS = test system: U251 CNS
# RXF 393 renal = test system: RXF 393 renal
# HCT-15 colon = test system: HCT-15 colon
# HOP-62 NSCLC = test system: HOP-62 NSCLC
# MCF7 breast = test system: MCF7 breast
# NCI-H226 lung = test system: NCI-H226 lung
# SNB-19 CNS = test system: SNB-19 CNS
# NCI-H23 lung = test system: NCI-H23 lung
# SF-539 CNS = test system: SF-539 CNS
# SK-MEL-2 melanoma = test system: SK-MEL-2 melanoma
# SF-295 CNS = test system: SF-295 CNS
# SW-620 colon = test system: SW-620 colon
# PC-3 prostate = test system: PC-3 prostate
# HCT-116 colon = test system: HCT-116 colon
# MDA-MB-231 breast = test system: MDA-MB-231 breast
# EKVX NSCLC = test system: EKVX NSCLC
# SK-MEL-28 melanoma = test system: SK-MEL-28 melanoma
# LOX IMVI melanoma = test system: LOX IMVI melanoma
# OVCAR-5 ovarian = test system: OVCAR-5 ovarian
# T-47D breast = test system: T-47D breast
# A549 NSCLC = test system: A549 NSCLC
# SNB-75 CNS = test system: SNB-75 CNS
smiles,measurement,setting,value
CC(C)(S)C(N)C(=O)O (configuration not stated),GI50,ACHN renal,> 5 mM
same,TGI,ACHN renal,> 5 mM
same,TGI,MDA-N,> 100 µM
same,GI50,M14 melanoma,4.37 mM
same,TGI,M14 melanoma,> 5 mM
same,GI50,786-0 renal,> 5 mM
same,TGI,786-0 renal,> 5 mM
same,GI50,SF-268 CNS,1.74 mM
same,TGI,SF-268 CNS,> 5 mM
same,GI50,SK-MEL-5 melanoma,895 µM
same,TGI,SK-MEL-5 melanoma,2.39 mM and > 0.1 mM
same,GI50,SK-OV-3 ovarian,2.6 mM
same,TGI,SK-OV-3 ovarian,> 5 mM
same,GI50,U251 CNS,1.78 mM
same,TGI,U251 CNS,> 5 mM
same,GI50,RXF 393 renal,> 5 mM
same,TGI,RXF 393 renal,> 5 mM
same,GI50,HCT-15 colon,1.95 mM
same,TGI,HCT-15 colon,> 5 mM
same,GI50,HOP-62 NSCLC,> 5 mM
same,TGI,HOP-62 NSCLC,> 5 mM
same,GI50,MCF7 breast,994 µM
same,TGI,MCF7 breast,2.2 mM and > 0.1 mM
same,GI50,NCI-H226 lung,> 5 mM
same,TGI,NCI-H226 lung,> 5 mM
same,GI50,SNB-19 CNS,3.37 mM
same,TGI,SNB-19 CNS,> 5 mM
same,GI50,NCI-H23 lung,1.51 mM
same,TGI,NCI-H23 lung,> 5 mM
same,GI50,SF-539 CNS,1.42 mM
same,TGI,SF-539 CNS,4.37 mM and > 0.1 mM
same,GI50,SK-MEL-2 melanoma,2.39 mM
same,TGI,SK-MEL-2 melanoma,> 5 mM
same,GI50,SF-295 CNS,963 µM
same,TGI,SF-295 CNS,3.66 mM and > 0.1 mM
same,GI50,SW-620 colon,2.22 mM
same,TGI,SW-620 colon,> 5 mM
same,GI50,PC-3 prostate,1.32 mM
same,TGI,PC-3 prostate,> 5 mM
same,GI50,HCT-116 colon,1.86 mM
same,TGI,HCT-116 colon,> 5 mM
same,GI50,MDA-MB-231 breast,2.66 mM
same,TGI,MDA-MB-231 breast,> 5 mM
same,GI50,EKVX NSCLC,1.19 mM
same,TGI,EKVX NSCLC,3.6 mM and > 0.1 mM
same,GI50,SK-MEL-28 melanoma,> 5 mM
same,TGI,SK-MEL-28 melanoma,> 5 mM
same,GI50,LOX IMVI melanoma,1.59 mM
same,TGI,LOX IMVI melanoma,> 5 mM
same,GI50,OVCAR-5 ovarian,> 5 mM
same,TGI,OVCAR-5 ovarian,> 5 mM
same,GI50,T-47D breast,1.17 mM
same,TGI,T-47D breast,2.68 mM and > 0.1 mM
same,GI50,A549 NSCLC,1.78 mM
same,TGI,A549 NSCLC,> 5 mM
same,GI50,SNB-75 CNS,> 5 mM
same,TGI,SNB-75 CNS,> 5 mM

# Source: PubChem BioAssay (NCI)
